Measurements: patent US9334246B2, “Substituted triazines for malaria treatment and chemoprophylaxis” (The United States of America, as represented by the …, priority 2013, dated 2016)

How the values were obtained:
Format in all cases: cell-based, Plasmodium falciparum
P. falciparum C235 = experiment: Malaria SYBR Green Fluorescence Assay, C235 strain; settings: for C235: SYBR Green Assay
P. falciparum D6 = experiment: Malaria SYBR Green Fluorescence Assay, D6 strain; settings: for D6: SYBR Green Assay
P. falciparum W2 = experiment: Malaria SYBR Green Fluorescence Assay, W2 strain; settings: for W2: SYBR Green Assay

## NC1(CNC2═NC(═NC(═N2)C2═CC(Cl)═CC═C2)C(Cl)(Cl)Cl)CC1 [Compound 680]
P. falciparum C235
  C235: 98 ng/mL
P. falciparum D6
  D6: 100 ng/mL
P. falciparum W2
  W2: 35 ng/mL

## ClC(Cl)(Cl)c1nc(Nc2ccncc2)nc(-c2ccc(N3CCCC3)cc2)n1 [Compound 744, ClC(Cl)(Cl)C1═NC(NC2═CC═NC═C2)═NC(═N1)C1═CC═C(C═C1)N1CCCC1]
P. falciparum C235
  C235: 290 ng/mL
P. falciparum D6
  D6: 190 ng/mL
P. falciparum W2
  W2: 188 ng/mL

## NC1CCN(c2nc(-c3ccccc3[N+](=O)[O-])nc(C(Cl)(Cl)Cl)n2)CC1 [Compound 632, NC1CCN(CC1)C1═NC(═NC(═N1)C(Cl)(Cl)Cl)C1═C(C═CC═C1)[N+]([O−])═O]
P. falciparum C235
  C235 (SYBR Green Assay IC50): 0.058 mg/L
P. falciparum D6
  D6 (SYBR Green Assay IC50): 0.064 mg/L
P. falciparum W2
  W2 (SYBR Green Assay IC50): 0.04 mg/L

## CC(C)CN1CCC(CC1)NC1═NC(═NC(═N1)C(Cl)(Cl)Cl)C1═C(C═CC═C1)[N+]([O−])═O [Compound 684]
P. falciparum C235
  C235: 155 ng/mL
P. falciparum D6
  D6: 225 ng/mL
P. falciparum W2
  W2: 66 ng/mL

## NC1(CNc2nc(-c3ccc(C(Cl)(Cl)Cl)cc3)nc(C(Cl)(Cl)Cl)n2)CCOCC1 [Cmpd 311]
P. falciparum C235
  C235: 169 ng/mL
P. falciparum D6
  D6: 81 ng/mL
P. falciparum W2
  W2: 47 ng/mL

## Clc1ccc(-c2nc(NCCc3ccncc3)nc(C(Cl)(Cl)Cl)n2)cc1 [Cmpd 139]
P. falciparum C235
  C235: 320 ng/mL
P. falciparum D6
  D6: 202 ng/mL
P. falciparum W2
  W2: 81 ng/mL

## NC1CCCCC1Nc1nc(-c2ccc(Cl)c(Cl)c2)nc(C(Cl)(Cl)Cl)n1 (stereo not drawn) [Compound 740, NC1CCCCC1NC1═NC(═NC(═N1)C1═CC(Cl)═C(Cl)C═Cl)C(Cl)(Cl)Cl]
P. falciparum C235
  C235: 23 ng/mL
P. falciparum D6
  D6: 38 ng/mL
P. falciparum W2
  W2: 11 ng/mL

## Cc1ccc(-c2nc(NCC3CCN(C)CC3)nc(C(Cl)(Cl)Cl)n2)cc1 [Cmpd 503]
P. falciparum C235
  C235 (SYBR Green Assay IC50): 0.026 mg/L
P. falciparum D6
  D6 (SYBR Green Assay IC50): 0.044 mg/L
P. falciparum W2
  W2 (SYBR Green Assay IC50): 0.014 mg/L

## NC1CCN(c2nc(-c3cccc(Cl)c3)nc(C(Cl)(Cl)Cl)n2)CC1 [Compound 633, NC1CCN(CC1)C1═NC(═NC(═N1)C(Cl)(Cl)Cl)C1═CC(Cl)═CC═C1]
P. falciparum C235
  C235 (SYBR Green Assay IC50): 0.01 mg/L
P. falciparum D6
  D6 (SYBR Green Assay IC50): 0.01 mg/L
P. falciparum W2
  W2 (SYBR Green Assay IC50): 0.008 mg/L

## CN1CCCN(c2nc(-c3ccc(Cl)cc3)nc(C(Cl)(Cl)Cl)n2)CC1 [Cmpd 287]
P. falciparum C235
  C235: 232 ng/mL
P. falciparum D6
  D6: 143 ng/mL
P. falciparum W2
  W2: 60 ng/mL

## CCN1CCCC(Nc2nc(Nc3ccc(OC)nc3)nc(C(Cl)(Cl)Cl)n2)C1 (stereo not drawn) [Cmpd 344]
P. falciparum C235
  C235: 98 ng/mL
P. falciparum D6
  D6: 80 ng/mL
P. falciparum W2
  W2: 34 ng/mL

## NC1(CNc2nc(-c3ccc(Cl)c(Cl)c3)nc(C(Cl)(Cl)Cl)n2)CCCCC1 [Compound 670, NC1(CNC2═NC(═NC(═N2)C2═CC(Cl)═C(Cl)C═C2)C(Cl)(Cl)Cl)CCCCC1]
P. falciparum C235
  C235: 38 ng/mL
P. falciparum D6
  D6: 22 ng/mL
P. falciparum W2
  W2: 20 ng/mL

## CN1CCN(CC1)c2ccc(Nc3nc(nc(n3)C(Cl)(Cl)Cl)C(Cl)(Cl)Cl)cc2 [Compound 731]
P. falciparum C235
  C235: 263 ng/mL
P. falciparum D6
  D6: 229 ng/mL
P. falciparum W2
  W2: 165 ng/mL

## CC1═CC═C(C═C1)C1═NC(═NC(═N1)C(Cl)(Cl)Cl)N1CCC(N)CC1 [Compound 623]
P. falciparum C235
  C235 (SYBR Green Assay IC50): 0.032 mg/L
P. falciparum D6
  D6 (SYBR Green Assay IC50): 0.058 mg/L
P. falciparum W2
  W2 (SYBR Green Assay IC50): 0.021 mg/L

## COc1cc(OC)cc(-c2nc(N3CCCNCC3)nc(C(Cl)(Cl)Cl)n2)c1 [Cmpd 525]
P. falciparum C235
  C235 (SYBR Green Assay IC50): 0.041 mg/L
P. falciparum D6
  D6 (SYBR Green Assay IC50): 0.043 mg/L
P. falciparum W2
  W2 (SYBR Green Assay IC50): 0.033 mg/L

## COc1ccc(-c2nc(NCC3CCN(C)CC3)nc(C(Cl)(Cl)Cl)n2)cc1OC [Cmpd 520]
P. falciparum C235
  C235 (SYBR Green Assay IC50): 0.045 mg/L
P. falciparum D6
  D6 (SYBR Green Assay IC50): 0.082 mg/L
P. falciparum W2
  W2 (SYBR Green Assay IC50): 0.019 mg/L

## COc1ccccc1-c1nc(N2CCCNCC2)nc(C(Cl)(Cl)Cl)n1 [Cmpd 218]
P. falciparum C235
  C235: 73 ng/mL
P. falciparum D6
  D6: 104 ng/mL
P. falciparum W2
  W2: 38 ng/mL

## FC(F)(F)OC1═CC═C(NC2═NC(═NC(NCCCN3CCCC3)═N2)C(Cl)(Cl)Cl)C═C1 [Compound 657]
P. falciparum C235
  C235: 731 ng/mL
P. falciparum D6
  D6: 535 ng/mL
P. falciparum W2
  W2: 390 ng/mL

## CC(C)CN1CCC(CC1)NC1═NC(═NC(═N1)C1═CC(═CC═C1)C(F)(F)F)C(Cl)(Cl)Cl [Compound 700]
P. falciparum C235
  C235: 567 ng/mL
P. falciparum D6
  D6: 513 ng/mL
P. falciparum W2
  W2: 368 ng/mL

## NC1(CNc2nc(-c3ccc(Cl)cc3)nc(C(Cl)(Cl)Cl)n2)CCOCC1 [Cmpd 333]
P. falciparum C235
  C235: 40 ng/mL
P. falciparum D6
  D6: 26 ng/mL
P. falciparum W2
  W2: 15 ng/mL

## CS(=O)(=O)c1ccc(-c2nc(NCCNCCO)nc(C(Cl)(Cl)Cl)n2)cc1 [Cmpd 98]
P. falciparum C235
  C235: 554 ng/mL
P. falciparum D6
  D6: 448 ng/mL
P. falciparum W2
  W2: 366 ng/mL

## COc1ccc(Nc2nc(N3CCN(C)CC3)nc(C(Cl)(Cl)Cl)n2)cn1 [Cmpd 345]
P. falciparum C235
  C235: 1100 ng/mL
P. falciparum D6
  D6: 267 ng/mL
P. falciparum W2
  W2: 199 ng/mL

## COc1cc(OC)cc(-c2nc(NCC3CCN(C)CC3)nc(C(Cl)(Cl)Cl)n2)c1 [Cmpd 521]
P. falciparum C235
  C235 (SYBR Green Assay IC50): 0.023 mg/L
P. falciparum D6
  D6 (SYBR Green Assay IC50): 0.045 mg/L
P. falciparum W2
  W2 (SYBR Green Assay IC50): 0.014 mg/L

## COC1═CC(═CC═C1)C1═NC(═NC(═N1)C(Cl)(Cl)Cl)N1CCC(N)CC1 [Compound 629]
P. falciparum C235
  C235 (SYBR Green Assay IC50): 0.019 mg/L
P. falciparum D6
  D6 (SYBR Green Assay IC50): 0.021 mg/L
P. falciparum W2
  W2 (SYBR Green Assay IC50): 0.015 mg/L

## CN1CCN(c2nc(-c3ccc(F)cc3)nc(C(Cl)(Cl)Cl)n2)CC1 [Cmpd 390]
P. falciparum C235
  C235 (SYBR Green Assay IC50): 0.567 mg/L
P. falciparum D6
  D6 (SYBR Green Assay IC50): 0.495 mg/L
P. falciparum W2
  W2 (SYBR Green Assay IC50): 0.143 mg/L

## CC(C)(C)c1ccc(-c2nc(N3CCCNCC3)nc(C(Cl)(Cl)Cl)n2)cc1 [Cmpd 115]
P. falciparum C235
  C235: 360 ng/mL
P. falciparum D6
  D6: 357 ng/mL
P. falciparum W2
  W2: 242 ng/mL

## CCN1CCCC(Nc2nc(-c3ccc(OC)c4ccccc34)nc(C(Cl)(Cl)Cl)n2)C1 (stereo not drawn) [Cmpd 280]
P. falciparum C235
  C235: 193 ng/mL
P. falciparum D6
  D6: 138 ng/mL
P. falciparum W2
  W2: 76 ng/mL

## CN1CCN(c2nc(-c3ccccc3)nc(C(Cl)(Cl)Cl)n2)CC1 [Cmpd 239]
P. falciparum C235
  C235: 158 ng/mL
P. falciparum D6
  D6: 192 ng/mL
P. falciparum W2
  W2: 125 ng/mL

## Clc1ccc(-c2nc(NCc3ccccn3)nc(C(Cl)(Cl)Cl)n2)cc1 [Cmpd 141]
P. falciparum C235
  C235: 652 ng/mL
P. falciparum D6
  D6: 556 ng/mL
P. falciparum W2
  W2: 237 ng/mL

## Cc1ccc(-c2ccccc2-c2nc(NCCN3CCCC3)nc(C(Cl)(Cl)Cl)n2)cc1 [Cmpd 266]
P. falciparum C235
  C235: 530 ng/mL
P. falciparum D6
  D6: 654 ng/mL
P. falciparum W2
  W2: 474 ng/mL

## CC(C)(C)c1ccc(-c2nc(N3CCC(N)CC3)nc(C(Cl)(Cl)Cl)n2)cc1 [Compound 624, CC(C)(C)C1═CC═C(C═C1)C1═NC(═NC(═N1)C(Cl)(Cl)Cl)N1CCC(N)CC1]
P. falciparum C235
  C235 (SYBR Green Assay IC50): 0.062 mg/L
P. falciparum D6
  D6 (SYBR Green Assay IC50): 0.091 mg/L
P. falciparum W2
  W2 (SYBR Green Assay IC50): 0.043 mg/L

## NC1CCN(CC1)C1═NC(═NC(═N1)C(Cl)(Cl)Cl)C1═CC═C(Cl)C(Cl)═C1 [Compound 622]
P. falciparum C235
  C235 (SYBR Green Assay IC50): 0.059 mg/L
P. falciparum D6
  D6 (SYBR Green Assay IC50): 0.074 mg/L
P. falciparum W2
  W2 (SYBR Green Assay IC50): 0.036 mg/L

## COc1ccc(-c2nc(NCCc3ccccn3)nc(C(Cl)(Cl)Cl)n2)cc1 [Cmpd 185]
P. falciparum C235
  C235: 244 ng/mL
P. falciparum D6
  D6: 185 ng/mL
P. falciparum W2
  W2: 63 ng/mL

## COc1cc(OC)cc(-c2nc(N3CCC(N)CC3)nc(C(Cl)(Cl)Cl)n2)c1 [Compound 635, COC1═CC(═CC(OC)═C1)C1═NC(═NC(═N1)C(Cl)(Cl)Cl)N1CCC(N)CC1]
P. falciparum C235
  C235 (SYBR Green Assay IC50): 0.218 mg/L
P. falciparum D6
  D6 (SYBR Green Assay IC50): 0.259 mg/L
P. falciparum W2
  W2 (SYBR Green Assay IC50): 0.135 mg/L

## CN(C)CCCNc1nc(-c2ccc(S(C)(=O)=O)cc2)nc(C(Cl)(Cl)Cl)n1 [Cmpd 442]
P. falciparum C235
  C235 (SYBR Green Assay IC50): 0.002 mg/L
P. falciparum D6
  D6 (SYBR Green Assay IC50): 0.002 mg/L
P. falciparum W2
  W2 (SYBR Green Assay IC50): 0.001 mg/L

## CCN(CC)CCNc1nc(Cc2cccc(OC)c2)nc(C(Cl)(Cl)Cl)n1 [Cmpd 243]
P. falciparum C235
  C235: 128 ng/mL
P. falciparum D6
  D6: 199 ng/mL
P. falciparum W2
  W2: 123 ng/mL

## COc1cc(OC)cc(-c2nc(NCCN3CCCC3)nc(C(Cl)(Cl)Cl)n2)c1 [Cmpd 476]
P. falciparum C235
  C235 (SYBR Green Assay IC50): 0.035 mg/L
P. falciparum D6
  D6 (SYBR Green Assay IC50): 0.057 mg/L
P. falciparum W2
  W2 (SYBR Green Assay IC50): 0.023 mg/L

## Clc1cc(Cl)cc(-c2nc(N3CCCNCC3)nc(C(Cl)(Cl)Cl)n2)c1 [Cmpd 204]
P. falciparum C235
  C235: 214 ng/mL
P. falciparum D6
  D6: 231 ng/mL
P. falciparum W2
  W2: 78 ng/mL

## CN1CCC(CNc2nc(-c3ccc(C(Cl)(Cl)Cl)cc3)nc(C(Cl)(Cl)Cl)n2)CC1 [Cmpd 511]
P. falciparum C235
  C235 (SYBR Green Assay IC50): 0.056 mg/L
P. falciparum D6
  D6 (SYBR Green Assay IC50): 0.077 mg/L
P. falciparum W2
  W2 (SYBR Green Assay IC50): 0.034 mg/L
